In patent US20250195599A1, “ANTI-DIABETIC STEROIDAL LACTONES OF WITHANIA COAGULANS FOR TREATMENT OF TYPE 2 DIABETES” (Khalifa University of Science and Technology, priority 2022, published 2025):

Assays:
myogenin = assay: Myogenin immunofluorescence staining in D-HSMM; assay type: cell-based, human; conditions: 48 h, optimum concentration, vs. D-HSMM control (untreated cells), FIG. 3A
Experimental: The supernatant was removed, cells were washed with warm PBS (37° C.), fixed with 100 μl PBS containing 4% paraformaldehyde at room temperature for 10 mins. Cells were permeabilized with 100 μl of 0.25% Triton X-100 on PBS for 10 mins at 25° C. The cells were then blocked with 100 μl of 10% normal goat serum (NGS), incubated with 50 μl of primary anti-myogenin antibody (Cat no: MAB3876, Merck Millipore, USA) diluted 1:500 in block solution overnight at 4° C. Cells were washed in PBS (200 μl) three times, incubated with 50 μl Goat anti-Mouse IgG (H+L) secondary antibody (Cross adsorbed, Alexa Fluor 594, Cat no: R37121, Thermo Fisher Scientific, USA) at room temperature for 30 min. Nuclei were counterstained with 1 μg/ml Hoechst 33342 solution (Cat no: 62249, Thermo Fisher Scientific, USA) in PBS (100 μl/well). For each treatment, cells were examined under EVOS F1 Microscope (Cat no: AMF4300, Life Technologies, USA) and photographed. Approximately 10-12 digital photographs were taken of each treatment for subsequent offline analysis. The total number of immune-positive and immuno-negative cells were counted using Image J (NIH, USA) software. […] Data were presented as a percentage of control (untreated cells).

D-HSMM myotubes = assay: Insulin-stimulated 2-NBDG glucose uptake in D-HSMM myotubes; assay type: cell-based, human; conditions: FIG. 7
Experimental: Insulin-stimulated 2-NBDG uptake: The ability of the test compounds on insulin-stimulated glucose uptake was measured using the Glucose Uptake Cell-Based Assay Kit (Cat no: 600470, Cayman, Michigan, USA) according to the manufacturer's instructions. Briefly, the cells were seeded at a density of 2×10^3 cells/well in a 96 well black, clear-bottom poly D lysine coated plate and allowed to grow with a media change after every 48 hours. […] Subsequently, cells were washed with 300 μl PBS three times and incubated with PBS for 5 mins at 37° C., in a CO2 incubator. Cells were challenged for 20 min with 50 μl of 100 nM insulin and 50 μl of 100 μg/ml fluorescent glucose analog 2-deoxy-2-[(7-nitro-2,1,3-benzoxadiazol-4-yl) amino]-D-glucose (2-NBDG) in Krebs/Ringer buffer (KRB) (118.5 mM NaCl, 25 mM NaHCO3, 4.74 mM KCl, 1.19 mM MgSO4, 2.54 mM CaCl2, 10 mM HEPES, 1.19 mM KH2PO4, 0.1% BSA) (pH 7.4). At the end of the incubation, the plates were centrifuged for 3 mins at 400×g at room temperature, and the supernatant was aspirated. Cells were washed with 200 μl/well cell-based assay buffer and centrifuged for 3 mins at 400×g at room temperature. […] The fluorescence reading of each well was immediately measured (excitation/emission=485 nm/535 nm) by using a Tecan multimode plate reader (Cat no: M200, Tecan, Switzerland). […]

MAFbx/atrogin-1 = assay: Atrogin-1/Fbx32 immunofluorescence staining in D-HSMM; assay type: cell-based, human; conditions: 48 h, optimum concentration, vs. control (non-treated cells), FIG. 4A
Experimental: The supernatant was removed, cells were washed with warm PBS (37° C.), fixed with phosphate-buffered saline (PBS) containing 4% paraformaldehyde at room temperature for 10 mins. Cells were permeabilized with 0.25% Triton X-100 on PBS for 10 mins at 25° C. The cells were then blocked with 100 μl of 10% NGS in PBS at room temperature for 2 hours. The cells were then incubated with 50 μl primary Anti-Fbx32 antibody (Cat no: NBP2-76836, Novus Biological, USA) diluted 1:100 in block solution overnight at 4° C. Cells were washed in PBS three times (200 μl), incubated with 50 μl Goat anti-Rabbit IgG (H+L) (Cross adsorbed, Alexa Fluor 488, Cat no: R37116, Thermo Fisher Scientific, USA) secondary antibody at room temperature for 30 min. Nuclei were counterstained with 1 μg/ml Hoechst 33342 solution (Cat no: 62249, Thermo Fisher Scientific, USA) in PBS (100 μl/well). For each treatment, cells were examined under EVOS F1 Microscope (Cat no: AMF4300, Life Technologies, USA) and photographed. Approximately 10-12 digital photographs were taken of each treatment for subsequent offline analysis. The total number of immune-positive and immuno-negative cells were counted using Image J (NIH, USA) software. […] Data were presented as a percentage of control (untreated cells).

[1] = test system: Diseased Human Skeletal Muscle Myoblasts (D-HSMM) diabetes type II; assay type: cell-based
Experimental: Measurement of cellular viability: Cell proliferation was measured by using MTT 3-(4,5-dimethylthiazol-2-yl)-2,5-diphenyltetrazolium bromide (MTT) (Cat no: M2128, Sigma Aldrich, USA). […] After 48 h of incubation, plates were removed from the CO2incubator and washed with 200 μl PBS. Thereafter, 100 μl of MTT solution (0.5 mg/ml in SkGM-2 medium) was added to each well. The contents were placed on a shaker for 5 min and were incubated for 4 hours in a CO2 incubator to allow the MTT to be metabolized. After incubation, the supernatant was removed, and the plate was washed with 300 μl PBS. The plates were inverted and strongly tapped on a paper towel to remove the medium completely. […] For the blank control, wells were set without cells but received all the reagents.

GLUT4 = assay: Total GLUT4 immunofluorescence in D-HSMM myotubes; assay type: cell-based, human; conditions: FIG. 6B; for expression of GLUT-4: treated 24 h on day 8, 100 nM insulin challenge, vs. D-HSMM control (untreated cell)
Experimental: Measurement of Total GLUT4: Approximately 2×10^3 cells were seeded in a 96 well clear bottom black poly D lysine (5 μg/cm^2) coated plate and allow to grow with a media change after every 48 h. […] The supernatant was removed and challenged for 5 mins with 100 nM insulin. Next, cells were washed with warm PBS (37° C.), fixed with phosphate-buffered saline (PBS) containing 4% paraformaldehyde at room temperature for 10 mins. Cells were permeabilized with 0.5% Triton X-100 on PBS for 10 mins at 25° C. The cells were then blocked with 100 μl of 10% NGS in PBS at room temperature for 2 hours. The cells were then incubated with 50 μl GLUT4 antibody (Cat no: NBP1-49533, Novus Biological, USA) diluted 1:100 in block solution overnight at 4° C. Cells were washed in PBS three times (200 μl), incubated with 50 μl Goat anti-Rabbit IgG (H+L) (Cross adsorbed, Alexa Fluor 488, Cat no: R37116, Thermo Fisher Scientific, USA) secondary antibody at room temperature for 30 min. Total fluorescence was measured m at […] (excitation/emission) by Tecan multimode plate reader (M200, Tecan, Switzerland). Cells without primary antibody were used for blank reduction. The relative GLUT 4 (%) related to control wells containing cells with DMEM:F12 medium was calculated by (RFU) test/(RFU) control×100. Where (RFU) test is the fluorescence of the test sample and (RFU) control is the fluorescence of the control sample.

urease = conditions: stated as background knowledge; cited from earlier work
GLUT1 = assay: Cell-based GLUT1 ELISA in D-HSMM myotubes; parameters: species or system human; conditions: treated 24 h on day 8, FIG. 6A
Experimental: After 24 hours, GLUT1 was measured by using CytoGlow™ cell-based GLUT 1 ELISA kit (Cat no: MBS95002558, MyBioSource, USA), according to the manufacturer's protocol. Briefly, cells were fixed with phosphate-buffered saline (PBS) containing 4% paraformaldehyde at room temperature for 20 mins. Next, cells were quenched for 20 mins at room temperature. Cells were washed in PBS three times, blocked at room temperature for 1 hour. Cells were washed in PBS three times, incubated with primary GLUTI antibody overnight at 4° C. Cells were washed in PBS three times (200 μl), incubated with HRP-conjugated secondary antibody at room temperature for 1.5 hours. Cells were washed in PBS three times and incubated with a ready-to-use substrate for 30 minutes at room temperature in the dark with gentle shaking on the shaker. The reaction was stopped, and OD was measured at 450 nm immediately using an Emax Plus microplate reader (Molecular devices, CA 94089, USA).

bovine embryo = conditions: stated as background knowledge; cited from earlier work
MyoD = assay: MyoD1 immunofluorescence staining in D-HSMM; assay type: cell-based, human; conditions: for MyoD positive cells: optimum concentration, vs. D-HSMM control (non-treated cells)
Experimental: The supernatant was removed, cells were washed with warm PBS (37° C.), fixed, and permeabilized with 100 μl phosphate-buffered saline (PBS) containing 4% paraformaldehyde and 0.1% Triton X-100 at room temperature for 10 mins. Next, cells were blocked with 1% BSA (100 μl) in PBS at room temperature for 1 hour. The cells were then incubated with 50 μl of primary anti-MyoD1 antibody (Cat no: ab16148, Abcam, USA), diluted 1:100 in a block solution, overnight at 4° C. Cells were washed in PBS three times, incubated with 50 μl Goat anti-Mouse IgG (H+L) secondary antibody (Cross adsorbed, Alexa Fluor 594, Cat no: R37121, Thermo Fisher Scientific, USA) at room temperature for 30 min. Nuclei were counterstained with 1 μg/ml Hoechst 33342 solution (Cat no: 62249, Thermo Fisher Scientific, USA) in PBS (100 μl/well). For each treatment, cells were examined under EVOS F1 Microscope (Cat no: AMF4300, Life Technologies, USA) and photographed. Approximately 10-12 digital photographs were taken of each treatment for subsequent offline analysis. The total number of immune-positive and immuno-negative cells were counted using Image J (NIH, USA) software. […] Data were presented as a percentage of control (untreated cells).

[2] = test system: Diseased Human Skeletal Muscle Myoblasts (D-HSMM) diabetes type II; assay: LDH release cytotoxicity assay; conditions: D-HSMM myoblasts treated 48 h; W. Coagulans and Coagulansin-A 1×10^−15 g/ml; vs. control (non-treated cells); FIG. 2A
Experimental: Cell line: The Clonetics® Diseased Human Skeletal Muscle Myoblasts (D-HSMM) diabetes type II, (Cat no: CC-2901) sourced from a donor, were purchased from Lonza (Lonza Bioscience, USA).
Cells were cultured in the growth medium, Skeletal Muscle Growth Media-2 (SkGM-2; CC-3244) containing basal medium, Human epidermal growth factor (hEGF), Dexamethasone, L-glutamine, Fetal Bovine Serum (FBS), and Gentamicin/Amphotericin B (GA-1000). Cells were seeded at 6250 cells/cm^2 in T175 flasks and maintained at 37° C. in a humidified incubator (Thermo Scientific, USA) containing 5% carbon dioxide (CO2). After 24 hours, when cells adhered to the bottom of the flask, media was changed every 24-48 hours. […]
The cytotoxicity detection kit (Cat no: 11644793001, Roche, USA) was used to measure lactate dehydrogenase (LDH) release according to the manufacturer's instructions. Briefly, released LDH in culture supernatants was measured with a 30-mins coupled enzymatic assay that results in the reduction of tetrazolium salt, Iodotetrazolium chloride (INT) into a formazan (red). […] Absorbance at 490 nm was measured with an Emax Plus microplate reader (CA 94089, Molecular devices, USA). The reader was calibrated to zero absorbance using a culture medium without cells. The untreated cells served as the control, and results were calculated as the percentage of viability in relation to the control. […]

Molecule | expression of myogenin (myogenin) | insulin-stimulated glucose uptake (2-NBDG) (D-HSMM myotubes; treated 24 h, vs. control (untreated cells)) | insulin-stimulated glucose uptake compared to positive controls (D-HSMM myotubes; vs. insulin, metformin, and pioglitazone) | expression of atrogin1 (MAFbx/atrogin-1) | MTT metabolic rate, dose optimization [1] | MTT viability [1] | expression of GLUT-4 (GLUT4) | expression of GLUT-4 compared to metformin (GLUT4; vs. metformin (as printed in text)) | antiurease activity (urease) | expression of GLUT1 (GLUT1) | effects on development of bovine embryo (bovine embryo) | MyoD positive cells compared to metformin and pioglitazone (MyoD; D-HSMM myoblasts, 48 h, vs. metformin and pioglitazone treated cells, FIG. 5A) | MyoD positive cells (MyoD; D-HSMM, 48 h, FIG. 5A) | MyoD positive cells, dose optimization (MyoD; D-HSMM, concentration 10^−15 g/ml (of 10^−13, 10^−15, 10^−17 g/ml tested), vs. diabetic control, FIG. 9) | LDH release [2]
CC1=C(CO)C(=O)O[C@@H]([C@](C)(O)[C@]2(O)CC[C@@]3(O)C4CC=C5CC=CC(=O)[C@]5(C)C4CC[C@]23C)C1 (stereo partly drawn) [Coagulansin-A, (14α, 17S,20S,22R)-14, 17,20,27-tetrahydroxy-1-oxowitha-2,5,24-trienolide)] | significantly increased expression | significantly enhanced glucose uptake | increased glucose uptake | significantly suppressed expression | did not affect the metabolic rate | did not affect the viability | upregulated | significant increase | antiurease activity | remained unaffected | beneficial effects on development of bovine embryo | Significantly increased MyoD positive cells | enhanced expression | enhanced expression | 
COc1ccc(Cl)cc1C(=O)NCCc1ccc(S(=O)(=O)NC(=O)NC2CCCCC2)cc1 [Glibenclamide, reference compound] |  |  |  |  |  |  |  |  |  |  |  |  | enhanced expression |  | 
Insulin | significantly increased expression |  |  | significantly suppressed expression |  |  | upregulated |  |  |  |  |  | enhanced expression |  | significant decrease
CN(C)C(=N)N=C(N)N [Metformin] | remained unaffected |  |  | significantly suppressed expression |  |  |  |  |  |  |  |  | did not show any difference |  | 
